{
  "source": "patent US20230310464A1",
  "about": "“USE OF C[…] THE TREATMENT OF SEIZURES ASSOCIATED WITH RARE […] SYNDROMES RELATED TO BRAIN INJURY” (GW Research Limited, priority 2020, published 2023)",
  "origin": "cited, not measured here",
  "key": {"[1]": {"system": "new-born piglets with HIE", "details": "Alvarez et al. (2008); cited from earlier work"}, "[2]": {"system": "patients with Dravet and Lennox-Gastaut syndrome", "details": "purified pharmaceutical formulation of CBD, three trials; cited from earlier work"}},
  "data": [
    {"smiles": "C=C(C)[C@@H]1CCC(C)=C[C@H]1c1c(O)cc(CCCCC)cc1O", "note": "[CBD, cannabidiol]", "values": [
      {"measurement": "effect on seizures in piglets (in words)", "setting": "[1]", "result": "A reduction in seizures was reported"},
      {"measurement": "proportion of CBD-treated piglets that still maintained significant seizures", "setting": "[1]", "result": "half"},
      {"measurement": "efficacy in randomized control trials (in words)", "setting": "[2]", "result": "showed efficacy"}
    ]}
  ]
}
